The results in this text go back to PubChem BioAssay (NCI).

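Cells were grown in 96-well plates and exposed to each compound for 48 hours at five concentrations; endpoints were interpolated linearly between bracketing concentrations, or set to the highest concentration if not reached. At the TGI there is no net growth.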 Where a SMILES comes first, the peptide text is derived from it. [ ]: non-standard residue; d: D form. The star is where a group is joined. Cbz = O=C(OCc1ccccc1)*; Aib = CC(C)(N)C(=O)O

What all share (assay): inhibition of tumour cell growth, NCI panel, 48 h
Experiment [1] deals with SN12C renal.
The test system of experiment [2] is SF-268 CNS.
Experiment [3] deals with MDA-N.
The test system of experiment [4] is HOP-62 NSCLC.
The test system of experiment [5] is SNB-19 CNS.
Experiment [6] has as its system HOP-92 NSCLC.
Experiment [7] concerns UACC-62 melanoma.
Experiment [8] concerns OVCAR-5 ovarian.
Experiment [9] has as its system RPMI-8226 leukemia.
The subject of experiment [10] is EKVX NSCLC.
The test system of experiment [11] is A498 renal.

With `Cc1nccn1S(=O)(=O)c1ccc(Cl)cc1`, the TGI in experiment [1] was more than 100 µM; in [2], more than 100 µM; in experiment [3] it was 51 µM; in experiment [4], more than 100 µM; in experiment [5] it was more than 100 µM; in experiment [6], 64.3 µM. In addition, the TGI in experiment [7], in [8], in experiment [9], in experiment [10] and in experiment [11] was more than 100 µM throughout.

Regarding `CCCCOc1ccc(S(=O)(=O)/N=C(\NO)Nc2ccc(Cl)cc2)cc1`, the TGI in [1] worked out at 31 µM; in experiment [2], 33.3 µM; in [3], 31.6 µM; in experiment [4] it was 32.4 µM; in [5] it was 30.5 µM; in [6] it was 19.3 µM. Further, the TGI in experiment [7] was 28.8 µM; in experiment [8] it was 33.6 µM; in [9], 50.9 µM; in [10], 29.5 µM; in experiment [11], 26.7 µM.

Regarding `O=c1[nH]c2ccc(C(F)(F)F)cc2nc1C(F)(F)F`, the TGI was 87.6 µM in experiment [1]; more than 100 µM in experiment [2]; more than 100 µM in experiment [3]; 55.5 µM in [4]; more than 100 µM in experiment [5]; 30.2 µM in experiment [6]. The TGI in experiment [7] is more than 100 µM; in [8], more than 100 µM; in experiment [9] it was more than 100 µM; in experiment [10], more than 100 µM; in [11] it was 87.5 µM.

Take `CC(C)=CCC[C@@H](C)C1=C(O)C(Nc2ccccc2)=C(C)C(=O)C1=O`: the TGI in experiment [1] was more than 100 µM; in experiment [2] it was more than 100 µM; in experiment [3], more than 100 µM; in [4], more than 55.2 µM; in [5], more than 100 µM; in [6], more than 78.3 µM. The TGI in experiment [7] was 54.5 µM; in experiment [8], more than 100 µM; in [9], more than 73.3 µM; in experiment [10] it was more than 100 µM; in experiment [11], 87.1 µM.

Consider `CC(=O)c1c(O)cc(O)c(-c2c(C)cc(O)c3c2C(=O)c2cccc(O)c2C3=O)c1O`, for which the TGI in experiment [1] was determined as 36 µM; in [2], 36.8 µM; in experiment [3] it was 30.8 µM; in experiment [4] it was 40.5 µM; in [5], 39.1 µM; in experiment [6], 26.1 µM. Moreover, the TGI was 29.1 µM in experiment [7]; 41.5 µM in [8]; 35.5 µM in experiment [9]; 31.9 µM in experiment [10]; 29.1 µM in [11].

Regarding `CC(C)(C)OC(=O)NNCC(O)COc1ccccc1` (configuration not stated), the TGI in experiment [1], in [2], in experiment [3], in [4], in [5] and in experiment [6] was more than 100 µM each time. The TGI in [7], in experiment [8], in [9], in [10] and in [11] was more than 100 µM throughout.

In the case of `Fc1ccc2c(c1)nc1n2C(c2c(F)cccc2F)SC1` (configuration not stated), the TGI in experiment [1], in [2], in experiment [3], in experiment [4], in experiment [5] and in experiment [6] was more than 100 µM throughout. Also, the TGI in [7], in [8], in [9], in [10] and in experiment [11] was more than 100 µM each time.

Take `CCOP(=O)(Cc1nc(C#N)c(N)o1)OCC`: the TGI in [1], in experiment [2], in [3], in experiment [4], in experiment [5] and in experiment [6] was more than 100 µM each time. The TGI in [7], in experiment [8], in experiment [9], in experiment [10] and in experiment [11] was more than 100 µM each time.

For `Cc1ccsc1/C=N/Nc1cc(C)c2ccccc2n1`, the TGI amounted to 34 µM in experiment [1]; 42.2 µM in experiment [2]; 29.3 µM in experiment [3]; 78.8 µM in experiment [4]; 32.8 µM in experiment [5]; 28.1 µM in experiment [6]. For the same compound, the TGI in experiment [7] was determined as 26.6 µM; in [8], 90.3 µM; in experiment [9], 8.9 µM; in [10] it was 28.8 µM; in [11], 23 µM.

Consider `Nc1ccn(CC(O)c2cc3ccccc3[nH]2)c(=O)n1` (configuration not stated), for which the TGI in experiment [1], in experiment [2], in [3], in experiment [4], in [5] and in [6] was more than 100 µM in each case. For the same compound, the TGI in experiment [7], in [8], in experiment [9], in experiment [10] and in experiment [11] was more than 100 µM throughout.

For `OCC(S)CS.[Bi]` (configuration not stated), the TGI was 37.9 µM in [1]; 28.4 µM in experiment [2]; 34.4 µM in [3]; 50.9 µM in experiment [4]; 37.3 µM in experiment [5]; 44.6 µM in experiment [6]. For the same compound, the TGI was 38.5 µM in [7]; 42.5 µM in [8]; 28.3 µM in experiment [9]; 45.4 µM in experiment [10]; 56.3 µM in [11].

In the case of `C=C1CC(O)C2C(=C)C(=O)OC2C2C(C)C(=O)CC12` (configuration not stated), the TGI in [1] was determined as 29.9 µM; in experiment [2] it was 45.7 µM; in experiment [3], 20.3 µM; in experiment [4], 42.7 µM; in [5], 38.5 µM; in experiment [6], 33.8 µM. Also, the TGI was 29.1 µM in [7]; 30.1 µM in [8]; 39.2 µM in experiment [9]; 35.6 µM in experiment [10]; 63.3 µM in [11].

With `COC(=O)/C=C\C(C#N)(C#N)N=Cc1ccc(Br)cc1`, the TGI in [1] was determined as 17.8 µM; in experiment [2], 31.1 µM; in [3] it was 20.1 µM; in experiment [4], 33.4 µM; in experiment [5], 55.2 µM; in experiment [6], 6.34 µM. Moreover, the TGI came to 16.5 µM in [7]; 35.8 µM in [8]; 5.74 µM in [9]; 29.6 µM in experiment [10]; 29.8 µM in experiment [11].

As to `CCC(C)N1CN(c2ccccc2)C2(CCN(CCCC3(c4ccc(F)cc4)OCCO3)CC2)C1=O` (configuration not stated), the TGI in experiment [1] stood at 18.9 µM; in [2] it was 48.5 µM; in experiment [3] it was 17.9 µM; in experiment [4] it was 27.6 µM; in [5], 34.6 µM; in experiment [6], 0.959 µM. Further, the TGI was more than 55.2 µM in experiment [7]; 22.4 µM in experiment [8]; 4 µM in experiment [9]; 17.6 µM in [10]; 37 µM in experiment [11].

On to `CC(C)(NC(=O)C(C)(C)NC(=O)OCc1ccccc1)C(=O)O` (Cbz-[Aib]-[Aib]-OH), for which the TGI in experiment [1], in [2], in experiment [3], in [4], in experiment [5] and in experiment [6] was more than 100 µM in each case. The TGI in experiment [7], in experiment [8], in experiment [9], in experiment [10] and in experiment [11] was more than 100 µM in each case.

For the compound `O=C(O)C1CSC2(CCCN(Cc3ccccc3)C2)N1` (configuration not stated), the TGI in experiment [1], in experiment [2], in experiment [3], in [4], in experiment [5] and in [6] was more than 100 µM throughout. The TGI is more than 100 µM in experiment [7]; more than 100 µM in experiment [8]; more than 34.4 µM in [9]; more than 100 µM in experiment [10]; more than 100 µM in [11].

With `CCCCCCCCCCOc1ccc(N=Nc2nnc(-c3ccc(OCCCCC)cc3)s2)cc1`, the TGI in experiment [1], in experiment [2], in experiment [3], in experiment [4], in experiment [5] and in [6] was more than 100 µM throughout. In addition, the TGI in experiment [7], in [8], in experiment [9], in [10] and in [11] was more than 100 µM each time.

Turning to `O=C(CN1CCN(c2ccccn2)CC1)N1CCCn2c1nc1ccccc1c2=O`, the TGI in experiment [1], in experiment [2], in experiment [3], in experiment [4], in experiment [5] and in experiment [6] was more than 100 µM in each case. For the same compound, the TGI in experiment [7], in experiment [8], in experiment [9], in experiment [10] and in experiment [11] was more than 100 µM in each case.

Regarding `COC(=O)C(CNC(=O)/C=C/c1ccc(OC(C)=O)c(OC(C)=O)c1)NC(=O)/C=C/c1ccc(OC(C)=O)c(OC(C)=O)c1` (configuration not stated), the TGI in experiment [1], in [2], in [3], in experiment [4], in experiment [5] and in experiment [6] was more than 100 µM each time. Moreover, the TGI in experiment [7], in experiment [8], in [9], in experiment [10] and in experiment [11] was more than 100 µM in each case.

On to `NNS(=O)(=O)c1ccc(/C=C2\NC(=O)NC2=O)cc1`, for which the TGI in experiment [1], in [2], in experiment [3], in experiment [4], in experiment [5] and in experiment [6] was more than 100 µM throughout. The TGI in experiment [7], in experiment [8], in experiment [9], in experiment [10] and in experiment [11] was more than 100 µM in each case.

Regarding `CSc1c(C)n([O-])c2cc(Cl)c(Cl)cc2[n+]1=O`, the TGI was 33.3 µM in experiment [1]; 36.6 µM in experiment [2]; 33.9 µM in [3]; more than 100 µM in experiment [4]; more than 100 µM in experiment [5]; 30.3 µM in [6]. Besides, the TGI in experiment [7] was found to be 28.9 µM; in [8], 29.8 µM; in experiment [9], 34.9 µM; in experiment [10], 31 µM; in experiment [11], 61.6 µM.

For the compound `COc1ccc(/N=N/C(=NNC(=O)c2ccc(C)cc2)c2ccc(N(C)C)cc2)cc1`, the TGI is more than 100 µM in experiment [1]; more than 100 µM in [2]; more than 73.4 µM in experiment [3]; more than 100 µM in experiment [4]; more than 100 µM in experiment [5]; more than 100 µM in [6]. The TGI in experiment [7] is more than 83.1 µM; in experiment [8], more than 100 µM; in experiment [9], more than 70.9 µM; in experiment [10] it was more than 100 µM; in experiment [11], more than 100 µM.
